Results: patent publication US8575188B2 (priority 2009, dated 2013)
Where two headings read alike, the source gives them in different places.

Columns and labels:
[1] = tested on: human non small cell lung cancer cell line H460; assay: Antiproliferation (cytotoxicity) assay, 72 hrs under air, Alamar Blue; type: cell-based; conditions: Homo sapiens, NCI-H460; H460, inhibition of proliferation, 72 hrs under air; read-out: IC50
[2] = tested on: DX5, which over expresses the MDR 1 efflux pump; assay: Efflux pump drug resistance, antiproliferation assay, MDR 1 over expressing line; type: cell-based; conditions: air
Protocol: (§1) The compounds were screened for cytotoxicity using human non small cell lung cancer cell line H460. […]
(§2) Cellular drug resistance was determined using the antiproliferation assay described above.

[3] = tested on: human non small cell lung cancer H-460; assay: Xenograft model, subcutaneous, tumor growth inhibition and body weight loss; conditions: for TGI (%): H460, PO, QD × 5/wk, 2 weeks; for Max. BWL (%): mouse, in vivo, po
Protocol: (§3) The first three models were produced by subcutaneous implantation of the appropriate number of cells into the flank of the animals. When tumor size was approximately 150 mm^3, animals were randomized into groups of 10 mice each for dosing. One arm was dosed with only vehicle and the results used for the efficacy calculations. […] TGI=(1−T/C) %. T/C ratio was calculated as T/C=(Tn−Ti)/(Cn−Ci), where Tn is tumor volume in treatment group on Day n, and Ti is the initial tumor volume in the treatment group. Cn is the tumor volume of the vehicle group on the last day of measurement. Ci is the initial tumor volume in the vehicle control group. Day n is the last measurement taken when all the animals in the vehicle group were not yet euthanized. Animals were euthanized when tumor volumes grew larger than 2000 mm^3.

human colon cancer HT-29 = assay: as above; conditions: for TGI (%): HT29, PO, QD × 5/wk, 2 weeks; for Max. BWL (%): mouse, in vivo, po
Protocol: as §3

[4] = tested on: MRP1 over expressing H69AR line; assay: Efflux pump drug resistance, antiproliferation assay, MRP1 over expressing line; type: cell-based; conditions: Homo sapiens, air
Protocol: as §1, §2

[5] = tested on: human prostate cancer cell line PC-3; assay: Antiproliferation assay, 72 hrs under air, Alamar Blue; type: cell-based; conditions: Homo sapiens, read-out: PC3 IC50
[6] = tested on: human melanoma cell line A375; assay: as above; type: cell-based; conditions: Homo sapiens, A-375
[7] = tested on: mouse melanoma cell line B-16-F10; assay: as above; type: cell-based; conditions: B16-F10
[8] = tested on: BCRP, which over expressed the breast cancer resistance protein; assay: Efflux pump drug resistance, antiproliferation assay, BCRP over expressing line; conditions: for 3d BCRP/pcDNA: 3 days
Protocol: as §1, §2

[9] = Brain penetration, AUC in brain versus AUC plasma; conditions: mouse
Protocol: Certain compounds of the invention were assessed for brain penetration by comparing the AUC for plasma exposure versus the AUC in brain.

pcDNA = assay: Efflux pump drug resistance, antiproliferation assay, parent line; type: cell-based; conditions: air
Protocol: as §1, §2

[10] = tested on: H69 small cell lung cancer line; assay: as above; type: cell-based; conditions: air
Protocol: as §1, §2

[11] = tested on: human prostate cancer cell line LNCap; assay: Antiproliferation assay, 72 hrs under air, Alamar Blue; type: cell-based; conditions: Homo sapiens, LNCaP
[12] = tested on: bone marrow progenitor cells; assay: Bone marrow progenitor cell clonogenic assay (CFU-GM), human; conditions: Homo sapiens, CFU-GM, read-out: Human CFU-GM (IC50 nM) THLD
Protocol: (§4) A clonogenic assay was performed using bone marrow progenitor cells derived from the blood of mice and humans.

[13] = as above; conditions: human
Protocol: as §4

[14] = tested on: bone marrow progenitor cells; assay: Bone marrow progenitor cell clonogenic assay (CFU-GM), mouse; conditions: Mus musculus, CFU-GM, read-out: Mouse CFU-GM (IC50 nM) THLD
Protocol: as §4

[15] = as above; conditions: mouse
Protocol: as §4

[16] = tested on: human melanoma cell line SKMEL2; assay: Antiproliferation assay, 72 hrs under air, Alamar Blue; type: cell-based; conditions: Homo sapiens, SK-MEL-2, read-out: SKMEL-2 IC50
[17] = tested on: human melanoma cell line SKMEL-28; assay: as above; type: cell-based; conditions: Homo sapiens, SK-MEL-28
[18] = In vivo pharmacokinetics, oral gavage; conditions: CD, mouse, in vivo, po; for AUC / Cmax: 50 mg/kg
Protocol: The data normalized to a 50 mg/kg dose are shown below (compounds were dosed at either 25 or 50 mg/kg).

[19] = tested on: human melanoma cell line MAMLE-3M; assay: Antiproliferation assay, 72 hrs under air, Alamar Blue; type: cell-based; conditions: Homo sapiens
[20] = tested on: human prostate cancer cell line DU145; assay: as above; type: cell-based; conditions: Homo sapiens, DU-145
[21] = tested on: Messa ovarian carcinoma cell line; assay: Efflux pump drug resistance, antiproliferation assay, parent line; type: cell-based; conditions: air
Protocol: […] Cells were treated with test compounds at various concentrations under air for 72 hrs, and then cell viability and proliferation were assessed by Alamar Blue staining.
as §2

[22] = tested on: IGROV1 human ovarian cancer cells; assay: Xenograft model of metastatic ovarian cancer (i.p.), survival; conditions: IGROV1 i.p., median survival treated / vehicle times 100; PO, QD × 5/wk, 4 weeks, 20 mg/Kg
Protocol: One arm was dosed with only vehicle and the results used for the efficacy calculations. […] A xenograft model of metastatic ovarian cancer was set up by the intraperitoneal (i.p) injection of 3×10^6 IGROV1 human ovarian cancer cells in nude mice. Mice were evaluated twice a week for morbidity and mortality. Kaplan-Meier survival curves were plotted.

[23] = tested on: human ovarian cancer cell line IGROV-1; assay: Antiproliferation assay, 72 hrs under air, Alamar Blue; type: cell-based; conditions: Homo sapiens, IGROV-1
[24] = tested on: human colon cancer cell line HT-29; assay: as above; type: cell-based; conditions: Homo sapiens, HT-29, read-out: HT29 IC50
H46O cells = assay: Selective hypoxic activation of 14-nitro prodrugs in cell culture; type: cell-based, human; conditions: TH1431 at 1 micromolar, 24 hr
Protocol: H46O cells were grown to a confluent monolayer and then the 14-nitro TH1332 prodrug was added to the media at 5 micromolar concentration. Incubations were done for 24 hour either under air or nitrogen (hypoxia), media and cells were recovered, sonicated and soluble extracts were isolated by acetonitrile precipitation of proteins. The level of amino TH1338 active cytotoxin were quantitated by liquid chromotagraphy mass spectra analysis. The equivalent of 70 nanomolar TH1338 was produced under hypoxia with undetectable levels being produced under air (less than 5 nanomolar).
The analogous experiment was preformed using 1 micromolar concentration of the 14-nitro derivative TH1431. After 24 hr, 180 nanomolar of the 14 amino TH1499 was produced under nitrogen with undetectable levels produced under air (less than 5 nanomolar).

[25] = MDR1, 72 h, 3 days, read-out: Air 3d DX5 prol. IC50
[26] = 72 h, 3 days, read-out: Air 3d H69ar (MRP1) prol. IC50
[27] = 72 h, read-out: Air 3d BCRP prol. IC50 nM, air, 3 days
[28] = ratio of IC50s, BCRP over expressing versus parent line
[29] = 72 h, 3 days, read-out: Air 3d pcDNA prol. IC50
[30] = 72 h, 3 days, read-out: Air 3d H69 prol. IC50
[31] = Homo sapiens, MES-SA, 72 h, 3 days, read-out: Air 3d MESSA prol. IC50

CC[C@@]1(O)C(=O)OCc2c1c(N)c1n(c2=O)Cc2cc3ccccc3nc2-1 [TH1320]
IC50 [1]: 18 nM
IC50 [2, 25]: 60 nM
TGI (%) ([3]; 30 mg/Kg): 79.2%
Max. BWL (%) ([3]; 30 mg/kg): 3.8%
TGI (%) (human colon cancer HT-29; 30 mg/Kg): 44.3%
Max. BWL (%) (human colon cancer HT-29; 30 mg/kg): 3%
IC50 [4, 26]: 91 nM
IC50 [5]: 43 nM
IC50 [6]: 22 nM
IC50 [7]: 950 nM
IC50 [8, 27]: 14 nM
3d BCRP/pcDNA [8, 28]: 1.8919
Kp [9]: 1.15
IC50 (pcDNA; [29]): 7.4 nM
IC50 [10, 30]: 91 nM
IC50 [11]: 110 nM
IC50 [12]: 130 nM
IC90 [13]: 1100 nM
IC50 [14]: 710 nM
IC90 [15]: 4800 nM
IC50 [16]: 170 nM
IC50 [17]: 3000 nM
half-life [18]: 1.98 h
AUC [18]: 1620 ng·h/mL
Cmax [18]: 547 ng/mL
IC50 [19]: 776 nM
IC50 [20]: 50 nM
IC50 [21, 31]: 58 nM
T/C [22]: 204
IC50 [23]: 120 nM
IC50 [24]: 229 nM

CC[C@@]1(O)C(=O)OCc2c1c(N)c1n(c2=O)Cc2c-1nc1ccccc1c2C [TH1339]
IC50 [1]: 1.8 nM
IC50 [2, 25]: 6.7 nM
TGI (%) ([3]; 15 mg/Kg): 46.1%
Max. BWL (%) ([3]; 15 mg/kg): 0%
TGI (%) (human colon cancer HT-29; 30 mg/Kg): 56.5%
Max. BWL (%) (human colon cancer HT-29; 30 mg/kg): 3%
IC50 [4, 26]: 28 nM
IC50 [5]: 9 nM
IC50 [6]: 3 nM
IC50 [7]: 690 nM
IC50 [8, 27]: 2.1 nM
3d BCRP/pcDNA [8, 28]: 0.913
IC50 (pcDNA; [29]): 2.3 nM
IC50 [10, 30]: 13 nM
IC50 [11]: 23 nM
IC50 [12]: 10 nM
IC90 [13]: 100 nM
IC50 [14]: 560 nM
IC90 [15]: 2200 nM
IC50 [16]: 50 nM
IC50 [17]: > 10000 nM
AUC [18]: 405 ng·h/mL
Cmax [18]: 378 ng/mL
IC50 [19]: 220 nM
IC50 [20]: 2.5 nM
IC50 [21, 31]: 8.5 nM
T/C [22]: 280
IC50 [23]: 10 nM
IC50 [24]: 69 nM

CC[C@@]1(O)C(=O)OCc2c1c([N+](=O)[O-])c1n(c2=O)Cc2c-1nc1ccccc1c2/C=N/OC(C)(C)C [TH1431]
IC50 [1]: 800 nM
IC50 ([2]; MDR1, 120 h, 5 days, read-out: Air 5d DX5 prol. IC50): 515 nM
TGI (%) (human colon cancer HT-29; 25 mg/Kg): 34.6%
Max. BWL (%) (human colon cancer HT-29; 25 mg/kg): 1.6%
IC50 [4, 26]: > 10000 nM
IC50 ([4]; 120 h, 5 days, read-out: Air 5d H69ar (MRP1) prol. IC50): 838 nM
IC50 [5]: 29 nM
IC50 [7]: 720 nM
IC50 ([8]; 120 h, read-out: Air 5d BCRP prol. IC50 nM, air, 5 days): 78 nM
5d BCRP/pcDNA ([8]; ratio of IC50s, BCRP over expressing versus parent line, 5 days): 1.1642
Kp [9]: 0.12
IC50 (pcDNA; [29]): 461 nM
IC50 (pcDNA; 120 h, 5 days, read-out: Air 5d pcDNA prol. IC50): 67 nM
IC50 (pcDNA; 3 days, read-out: Air 3d pcDNA prol. IC50): 900 nM
IC50 [10, 30]: 3790 nM
IC50 ([10]; 120 h, 5 days, read-out: Air 5d H69 prol. IC50): 354 nM
TH1499 produced under air (H46O cells; air, undetectable levels): less than 5 nanomolar
14 amino TH1499 produced under nitrogen (H46O cells; nitrogen): 180 nM
AUC [18]: 352 ng·h/mL
Cmax [18]: 348 ng/mL
IC50 [21, 31]: 2690 nM
IC50 ([21]; Homo sapiens, MES-SA, 120 h, 5 days, read-out: Air 5d MESSA prol. IC50): 255 nM
IC50 ([21]; 3 days, read-out: Air 3d MESSA prol. IC50): 3300 nM
IC50 [24]: 288 nM
